# Source: patent US4791215A, “Derivatives of glutamic acid and aspartic acid” (priority 1984, dated 1988)
# Experiments:
# [1] = tested on: endogenous opiates analgesia; experiment: Analgesic activity of endogenous opiates released by transcutaneous shock, Tail Flick Test (Experiment 3); format: in vivo, rats
# Procedure: Experiment No. 3: Influence of several of the compounds of the invention on the analgesic activities of endogenous opiates released by transcutaneous shock in rats and measured by the Tail Flick Test
# The method is that described by Lewis et al. J. Neurosc. 1, 358 […]. Male rats which have not fasted and have a weight of about 200 g are used.
# The animals are stressed by the application of a 60 Hz-2.5 mA current to the front leg in pulses of a duration of 1 second every 5 seconds for 20 minutes.
# This stress regime induces the release of endogenous opiates.
# biliary flow = experiment: Biliary flow (choleretic activity); format: in vivo, rat; settings: for ED50: Rattus norvegicus, iv, average over 2 hours, read-out: ED50 (dose causing 50% increase in biliary flow)
# Procedure: The following experiment was carried out: a cannula was inserted in the bile duct of a rat anaesthetised with urethane, together with a small needle connected to a polythene tube, and the bile liquid was thus collected. The collection was carried out for one hour before the intravenous administration of the tested compounds and for a further two hours after administration, the samples collected at 30 minute intervals being weighed.
# In order to prevent possible dehydration of the animals, 0.5 ml of physiological solution was administered at 30 minute intervals up to a total of 3 ml.
# morphine analgesia = experiment: Increase in analgesia of morphine, Tail Flick Test (Experiment 1); format: in vivo, rats; settings: for percentage variation of latency of pain sensation / M (10-90) ± SE, mean percentage variation of latency: compound 10 mg/kg i.p. + morphine 2 mg/kg; for M (10-90) ± SE, mean percentage variation of latency: mean 10-90 min; for Power ratio with respect to morphine alone: rat, in vivo
# In short: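 Non-fasted male rats (150-200 g); a tail point is exposed to a 75 °C heat source and latency to tail movement recorded, 8 s cut-off. Readings taken before and 10, 20, 30, 45, 60 and 90 min after analgesic treatment; percentage variation calculated per animal.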
# [2] = Food consumption on daily oral dosing; format: in vivo, rats
# Procedure: (§1) In order to check the hypothesis that the anti-CCK activity shown by most of the compounds in question may be used to advantage in the treatment of anorexia in man or as an appetite stimulant for farm animals, the following experiment was carried out:
# (§2) Male rats having a weight of about 160 g, divided into groups of 10 animals, were used. […]
# (§3) The drug, in the form of the sodium salt, was dissolved in water and administered in a volume of 10 ml of H2 O/kg while the control group received an equal volume of the solvent alone.
# (§4) The following tables give the average values of the food consumption and the average weight of each group of animals, calculated weekly as well as the Student's t value calculated from the various treated groups and the group of control animals.
# [3] = Body weight on daily oral dosing; format: in vivo, rats
# Procedure: as §1, §2, §3, §4
# [4] = compound 1 mg/kg iv + stress, 5'
# [5] = compound 1 mg/kg iv + stress, 10'
# [6] = compound 1 mg/kg iv + stress, 15'
# [7] = compound 3 mg/kg iv + stress, 5'
# [8] = compound 3 mg/kg iv + stress, 10'
# [9] = compound 3 mg/kg iv + stress, 15'
structure (smiles),measurement,setting,value
CCCN(CCC)C(=O)C(CCC(=O)O)NC(=O)c1ccc(C)c(C)c1 (stereo not drawn) [Compound C-30],"average latency, Tail Flick",[1]; [4],7.26 ± 0.52 s
same,"average latency, Tail Flick",[1]; [5],6.10 ± 0.49 s
same,"average latency, Tail Flick",[1]; [6],4.68 ± 0.5 s
same,"average latency, Tail Flick",[1]; [7],9.46 ± 0.64 s
same,"average latency, Tail Flick",[1]; [8],7.96 ± 0.61 s
same,"average latency, Tail Flick",[1]; [9],6.82 ± 0.78 s
same,% increase in biliary flow with respect to controls,biliary flow; 12.5 mg/kg i.v.,+33.7%
same,% increase in biliary flow with respect to controls,biliary flow; 25 mg/kg i.v.,+60.2%
same,% increase in biliary flow with respect to controls,biliary flow; 50 mg/kg i.v.,+121.2%
same,% increase in biliary flow with respect to controls,biliary flow; 100 mg/kg i.v.,+197.8%
same,ED50,biliary flow,18.5 mg/kg
same,percentage variation of latency of pain sensation,morphine analgesia; 10',69.9 ± 16%
same,percentage variation of latency of pain sensation,morphine analgesia; 20',100.0 ± 0%
same,percentage variation of latency of pain sensation,morphine analgesia; 30',95.2 ± 4.8%
same,percentage variation of latency of pain sensation,morphine analgesia; 45',91.8 ± 8%
same,percentage variation of latency of pain sensation,morphine analgesia; 60',100%
same,percentage variation of latency of pain sensation,morphine analgesia; 90',100.0 ± 0%
same,"M (10-90) ± SE, mean percentage variation of latency",morphine analgesia,92.8 ± 12%
same,Power ratio with respect to morphine alone,morphine analgesia,3.11
same,food consumption,"[2]; 3 mg/kg os, week 1",193.7 ± 3.58 g/week
same,food consumption,"[2]; 3 mg/kg os, week 2",233.2 ± 4.56 g/week
same,food consumption,"[2]; 3 mg/kg os, week 3",187.1 ± 8.40 g/week
same,food consumption,"[2]; 3 mg/kg os, week 4",204.0 ± 3.63 g/week
same,food consumption,"[2]; 10 mg/kg os, week 1",219.8 ± 5.62 g/week
same,food consumption,"[2]; 10 mg/kg os, week 2",264.3 ± 5.61 g/week
same,food consumption,"[2]; 10 mg/kg os, week 3",234.5 ± 5.05 g/week
same,food consumption,"[2]; 10 mg/kg os, week 4",234.6 ± 3.99 g/week
same,food consumption,"[2]; 30 mg/kg os, week 1",233.7 ± 5.45 g/week
same,food consumption,"[2]; 30 mg/kg os, week 2",267.9 ± 4.92 g/week
same,food consumption,"[2]; 30 mg/kg os, week 3",247.0 ± 5.19 g/week
same,food consumption,"[2]; 30 mg/kg os, week 4",244.5 ± 4.06 g/week
same,body weight,"[3]; 3 mg/kg os, time 0",270.8 ± 8.3 g
same,body weight,"[3]; 3 mg/kg os, week 1",310.2 ± 7.01 g
same,body weight,"[3]; 3 mg/kg os, week 2",380.5 ± 6.5 g
same,body weight,"[3]; 3 mg/kg os, week 3",409.7 ± 2.99 g
same,body weight,"[3]; 3 mg/kg os, week 4",437.3 ± 55 g
same,body weight,"[3]; 10 mg/kg os, time 0",271.4 ± 9.3 g
same,body weight,"[3]; 10 mg/kg os, week 1",332.9 ± 5.7 g
same,body weight,"[3]; 10 mg/kg os, week 2",383.2 ± 6.5 g
same,body weight,"[3]; 10 mg/kg os, week 3",439.1 ± 4.3 g
same,body weight,"[3]; 10 mg/kg os, week 4",470.5 ± 6.5 g
same,body weight,"[3]; 30 mg/kg os, time 0",267.9 ± 7.7 g
same,body weight,"[3]; 30 mg/kg os, week 1",315.7 ± 7.4 g
same,body weight,"[3]; 30 mg/kg os, week 2",371.9 ± 7.9 g
same,body weight,"[3]; 30 mg/kg os, week 3",437.1 ± 5.2 g
same,body weight,"[3]; 30 mg/kg os, week 4",488.1 ± 6.4 g
CCCN(CCC)C(=O)C(CCC(=O)O)NC(=O)c1cccc(C#N)c1 (stereo not drawn) [Compound C-20],"average latency, Tail Flick",[1]; [4],7.5 ± 0.3 s
same,"average latency, Tail Flick",[1]; [5],5.34 ± 0.46 s
same,"average latency, Tail Flick",[1]; [6],3.88 ± 0.29 s
same,"average latency, Tail Flick",[1]; [7],8.48 ± 0.62 s
same,"average latency, Tail Flick",[1]; [8],6.42 ± 0.21 s
same,"average latency, Tail Flick",[1]; [9],4.98 ± 0.36 s
same,% increase in biliary flow with respect to controls,biliary flow; 12.5 mg/kg i.v.,+48.5%
same,% increase in biliary flow with respect to controls,biliary flow; 25 mg/kg i.v.,+63.9%
same,% increase in biliary flow with respect to controls,biliary flow; 50 mg/kg i.v.,+108.0%
same,ED50,biliary flow,19.4 mg/kg
same,percentage variation of latency of pain sensation,morphine analgesia; 10',53.8%
same,percentage variation of latency of pain sensation,morphine analgesia; 20',85.7 ± 10.0%
same,percentage variation of latency of pain sensation,morphine analgesia; 30',92.0 ± 8.0%
same,percentage variation of latency of pain sensation,morphine analgesia; 45',99.1 ± 1.0%
same,percentage variation of latency of pain sensation,morphine analgesia; 60',91.2 ± 9.0%
same,percentage variation of latency of pain sensation,morphine analgesia; 90',51.2%
same,"M (10-90) ± SE, mean percentage variation of latency",morphine analgesia,78.8 ± 21.0%
same,Power ratio with respect to morphine alone,morphine analgesia,2.64
CCCCN(CCCC)C(=O)CCC(NC(=O)c1ccc(Cl)c(Cl)c1)C(=O)O [Compound D-2],"average latency, Tail Flick",[1]; [4],9.2 ± 0.53 s
same,"average latency, Tail Flick",[1]; [5],7.0 ± 0.86 s
same,"average latency, Tail Flick",[1]; [6],5.28 ± 0.64 s
same,"average latency, Tail Flick",[1]; [7],9.6 ± 0.46 s
same,"average latency, Tail Flick",[1]; [8],7.24 ± 0.58 s
same,"average latency, Tail Flick",[1]; [9],5.08 ± 0.52 s
same,percentage variation of latency of pain sensation,morphine analgesia; 10',85.6 ± 14.0%
same,percentage variation of latency of pain sensation,morphine analgesia; 20',98.1 ± 2.0%
same,percentage variation of latency of pain sensation,morphine analgesia; 30',95.9 ± 4.0%
same,percentage variation of latency of pain sensation,morphine analgesia; 45',96.6 ± 3.0%
same,percentage variation of latency of pain sensation,morphine analgesia; 60',95.5 ± 3.0%
same,percentage variation of latency of pain sensation,morphine analgesia; 90',87.5 ± 6.0%
same,"M (10-90) ± SE, mean percentage variation of latency",morphine analgesia,93.2 ± 5.3%
same,Power ratio with respect to morphine alone,morphine analgesia,3.12
CCCN(CCC)C(=O)C(CCC(=O)O)NC(=O)c1ccc(C(C)C)cc1 (stereo not drawn) [Compound C-36],"average latency, Tail Flick",[1]; [4],6.9 ± 0.74 s
same,"average latency, Tail Flick",[1]; [5],6.5 ± 0.42 s
same,"average latency, Tail Flick",[1]; [6],4.66 ± 0.55 s
same,"average latency, Tail Flick",[1]; [7],9.22 ± 0.67 s
same,"average latency, Tail Flick",[1]; [8],8.1 ± 0.43 s
same,"average latency, Tail Flick",[1]; [9],9.28 ± 0.64 s
same,% increase in biliary flow with respect to controls,biliary flow; 12.5 mg/kg i.v.,+15.5%
same,% increase in biliary flow with respect to controls,biliary flow; 25 mg/kg i.v.,+48.5%
same,% increase in biliary flow with respect to controls,biliary flow; 100 mg/kg i.v.,+215.8%
same,ED50,biliary flow,26.8 mg/kg
same,percentage variation of latency of pain sensation,morphine analgesia; 10',8.6%
same,percentage variation of latency of pain sensation,morphine analgesia; 20',100.0 ± 0%
same,percentage variation of latency of pain sensation,morphine analgesia; 30',96.9 ± 3%
same,percentage variation of latency of pain sensation,morphine analgesia; 45',90.0 ± 10%
same,percentage variation of latency of pain sensation,morphine analgesia; 60',96.9 ± 3%
same,percentage variation of latency of pain sensation,morphine analgesia; 90',92.4 ± 25%
same,"M (10-90) ± SE, mean percentage variation of latency",morphine analgesia,80.8 ± 36%
same,Power ratio with respect to morphine alone,morphine analgesia,2.71
